{
  "source": "patent US20240358721A1",
  "about": "“GASDERMIN-D INHIBITORS AND USES THEREOF FOR TREATING PULMONARY VASO-OCCLUSION” (UNIVERSITY OF PITTSBURGH-OF THE COMMONWEALTH SYSTEM OF …, priority 2021, published 2024)",
  "system": "SCD mice",
  "experiment": "qFILM assessment of pulmonary vaso-occlusion in SCD mice IV administered oxy-Hb",
  "type": "in vivo, mouse",
  "settings": "LDC7559 10 mg/kg, Z-VAD-FMK 0.004 μmol/kg",
  "excerpt": "Quantitative fluorescence intravital lung microscopy (qFILM) was used to assess the absence or presence of platelet-neutrophil aggregate mediated pulmonary vaso-occlusion. Pulmonary microcirculation (pseudo-colored purple), neutrophils (red) and platelets (pseudo-colored green) were labeled in vivo by IV administration of FITC dextran, AF546-anti-Ly6G Ab and V450-anti-CD49b Ab, respectively. […] White arrows denote the direction of blood flow within the pulmonary arterioles. Alveoli are marked with asterisks. Scale bars 20 μm. The diameter of pulmonary arteriole in B-E is ˜22 μm, 32 μm, 31.5 μm, and 31 μm, respectively. […] Refer Online Data Supplement for details. […] The data for mice with SCD IV administered 10 oxy-Hb (n=5 mice; 75 FOVs) are included as black bars in FIGS. 1N and 1O for relative comparison. qFILM FOV size ˜65 536 μm^2. Data represent mean ±SE and are compared using Student t test. *P<0.05 (FIG. 1P) Schematic showing the main findings of the study. The sterile inflammatory milieu (DAMPs, IFN-I signaling, and ROS) in SCD promotes caspase-4 (humans) or caspase-11 (mouse)-dependent cleavage of neutrophil GSDMD into the active form GSDMD-NT, leading to the shedding of NETs in the liver microcirculation. Once shed, these NETs are carried by the blood as cNETs to the lung, where they promote neutrophil-platelet aggregation in the pulmonary arterioles, leading to PVO and lung injury (acute chest syndrome).\nIntravital lung microscopy (experimental scheme shown in FIG. 1A) was conducted in live mice to assess whether preventing liver-to-lung embolization of cNETs by inhibiting or deleting GSDMD-signaling leads to amelioration of pulmonary vaso-occlusion. Although large neutrophil-platelet aggregates (marked with dotted ellipses) were seen occluding the arteriolar bottle-necks, leading to impaired blood flow in the lung of SCD mice IV administered 10 μmole/kg oxy-Hb (FIG. 1B), such aggregates were rare in the lung of SCD mice IV administered 10 μmole/kg oxy-Hb with 0.004 μmol/kg pan-caspase inhibitor Z-VAD-FMK (FIG. 1C) or 10 mg/kg GSDMD-NT inhibitor LDC7559 (FIG. 1D) or 20 mg/kg GSDMD-NT inhibitor Necrosulfonamide (FIG. 1E). […] The twofold higher dose of 20 μmole/kg IV oxy-Hb also led to the development of lung vaso-occlusion in WT but not Gsdmd^−/− mice (FIG. 2). […] P-selectin deficiency led to an approximately 50% reduction in pulmonary vaso-occlusion in SCD-Selp^−/− mice administered 10 μmole/kg IV oxy-Hb (FIG. 3), however, IV administration of oxy-Hb with GSDMD-NT inhibitor (LDC7559) led to further threefold (significant) reduction in pulmonary vaso-occlusions per FOV (FIGS. 1N and 4A, and FIG. 5) and absence of large pulmonary vaso-occlusions (area>1000 μm^2) per FOV (FIG. 10) in SCD-Selp^−/− mice.\nQuantitative fluorescence intravital lung microscopy (qFILM) has been used widely for in vivo assessment of pulmonary vasoocclusion in mice with SCD [Bennewitz M F et al., (2017); Vats R, Brzoska T, Bennewitz M F, et al. (2020); Vats R, Tutuncuoglu E, Pradhan-Sundd T, Tejero J, Shaw G D, Sundd P. (2020); Bennewitz M F, Tutuncuoglu E, Gudapati S, et al. (2020)] In the current study, qFILM was used to assess pulmonary vaso-occlusion and detect NETs in the intact lung microcirculation of live mice following IV challenge with saline, oxy-hemoglobin (oxy-Hb), hemin, or lipo-polysaccharide with or without pretreatment with N-terminus active domain (GSDMD-NT) inhibitors LDC7559 [Sollberger G, Choidas A, Burn G L, et al. (2018)], NSA [Rathkey J K, Zhao J, Liu Z, et al. (2018)], Disulfiram [Hu J J, Liu X, Xia S, et al. (2020)], or the pan-caspase inhibitor Z-VAD-FMK [Sollberger G, Choidas A, Burn G L, et al. (2018)], haptoglobin [Belcher J D, Chen C, Nguyen J, et al. (2014)], or TLR4-inhibitor (TAK242) [Belcher J D, Chen C, Nguyen J, et al. (2014)]. qFILM was conducted with a Nikon multiphoton excitation fluorescence microscope and an APO LWD 25×water immersion objective with 1.1 NA. […]",
  "key": {"[1]": {"settings": "IV 10 μmole/kg oxy-Hb with inhibitor vs oxy-Hb alone, NSA 20 mg/kg"}, "[2]": {"settings": "IV 10 μmole/kg oxy-Hb with inhibitor, NSA 20 mg/kg"}},
  "note": "“Also recorded” adds a separate entry of the source.",
  "data": [
    {"smiles": "COc1ccccc1-c1cc2n(n1)Cc1ccc(NC(C)=O)cc1OC2", "note": "[LDC7559]", "values": [
      {"measurement": "Number of PVOs per Field of View (#PVOs/FOV)", "setting": "[1]", "result": "significantly less; also recorded: significantly reduced"},
      {"measurement": "number of large PVOs (with area>1000 μm^2) per FOV", "setting": "[1]", "result": "significantly less; also recorded: significantly reduced"},
      {"measurement": "blood flow in the lung (rapidly transiting erythrocytes)", "setting": "[2]", "result": "significantly improved"},
      {"measurement": "lung vaso-occlusion in representative qFILM images", "setting": "[2]", "result": "absence of lung vaso-occlusion; also recorded: lack of pulmonary vaso-occlusion"},
      {"measurement": "large neutrophil-platelet aggregates occluding the arteriolar bottle-necks in the lung", "setting": "IV 10 μmole/kg oxy-Hb with inhibitor, Necrosulfonamide 20 mg/kg", "result": "rare"}
    ]}
  ]
}
